This note sets out measurements from PubChem BioAssay AID720701 (Sanford-Burnham Center for Chemical Genomics, 2013).

Activity calls are given as the source filed them. No rule for the calls is given here.

The target in the assay is Protein artemis (Homo sapiens) (UniProt Q96SD1). Nature of the assay: IC50 of Artemis nuclease activity blockers – biochemical, fluorescence intensity, dose response (AID 720701). The note with it: Recombinant Artemis endonuclease.
Sequence of Protein artemis (Homo sapiens) (Q96SD1 whole entry, looked up): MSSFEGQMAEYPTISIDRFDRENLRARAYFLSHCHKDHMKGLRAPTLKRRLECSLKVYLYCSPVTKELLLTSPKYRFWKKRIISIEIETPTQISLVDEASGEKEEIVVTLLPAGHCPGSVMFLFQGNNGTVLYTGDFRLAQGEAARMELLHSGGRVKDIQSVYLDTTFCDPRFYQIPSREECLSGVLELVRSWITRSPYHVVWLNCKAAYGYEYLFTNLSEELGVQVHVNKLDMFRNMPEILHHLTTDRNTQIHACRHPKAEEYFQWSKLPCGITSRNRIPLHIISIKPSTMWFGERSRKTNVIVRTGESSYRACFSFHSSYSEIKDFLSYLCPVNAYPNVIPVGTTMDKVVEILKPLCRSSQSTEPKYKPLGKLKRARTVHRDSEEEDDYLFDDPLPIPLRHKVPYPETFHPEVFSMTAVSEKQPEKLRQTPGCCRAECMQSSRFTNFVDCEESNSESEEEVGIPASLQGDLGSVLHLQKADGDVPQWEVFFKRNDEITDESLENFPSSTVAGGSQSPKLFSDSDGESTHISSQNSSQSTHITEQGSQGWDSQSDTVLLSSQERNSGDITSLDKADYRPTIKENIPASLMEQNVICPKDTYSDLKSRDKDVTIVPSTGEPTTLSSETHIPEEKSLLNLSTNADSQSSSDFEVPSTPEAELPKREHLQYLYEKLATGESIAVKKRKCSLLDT

A word on the IC50: it is the concentration needed to halve the response being measured. `O=C(CCCSc1ccccc1)Nc1nc(-c2ccccn2)cs1`: the half-inhibitory concentration (IC50) is 9.58 µM. Under `CCCCCCCCC/C(=N\O)c1ccccn1` stands 11 µM. Under `CCN(CC)c1ccc(/C=N/Nc2nc3ccccc3[nH]2)c(O)c1` stands 15.5 µM; under `COc1ccc(C(=O)c2c(C(F)(F)F)oc3c2C(=O)c2ccccc2C3=O)cc1OC`, > 20 µM (inactive); under `Cc1nnc(-c2ccccc2)c(=O)n1/N=C/c1c(O)ccc2ccccc12`, > 20 µM (inactive). Under `Nc1[nH]n2c(=O)c3c(nc2c1N=Nc1ccc(Cl)cc1)CCCC3` stands 16.4 µM; under `Oc1ccc2ccccc2c1C=NC12CN3CCN(CN(C3)C1)C2`, 3.64 µM; under `Cc1cc(C)n(-c2nc(Nc3ccccc3C(F)(F)F)nc(-n3nc(C)cc3C)n2)n1`, 5 µM. For `COc1cccc(/C=N/Nc2nc(Nc3ccccc3)nc(-n3nc(C)cc3C)n2)c1O`, the IC50 was 1.5 µM. The figure for `COc1cccc(N=Nc2c(N)[nH]n3c(=O)cc(-c4ccccc4)nc23)c1` is 16.2 µM.

Consider `O=c1c2ccccc2nc(N/N=C/c2c(O)ccc3ccccc23)n1O`, for which the 50% inhibitory concentration (IC50) was 4.68 µM. The figure for `COc1ccc(O)c(/C=N/Nc2nc(Nc3ccccc3)nc(-n3nc(C)cc3C)n2)c1` is 2.23 µM; for `N#CC1=C(N)Oc2n[nH]c(-c3cccs3)c2C1c1ccoc1` (stereo unspecified) it is > 20 µM (inactive). In the case of `C/C(=N\O)c1ccccc1C(=O)O`, the IC50 was 3.62 µM. The figure for `CN1/C(=N\O)c2cccc3cccc1c23` is > 20 µM (inactive). On to `COc1ccc(Nc2nc(NCc3ccco3)nc(N/N=C/c3ccccc3)n2)cc1`, for which the IC50 was 2.65 µM.
